# Experimental data reported in ChEMBL document CHEMBL2380277, “A new synthesis of 4'-resveratrol esters and evaluation of the potential for anti-depressant activity” (Bioorg Med Chem Lett, 2013).
# Active and inactive are the calls of the source. The calls are words filed in the database; no cut-off is given here.
# How the values were obtained:
# Rattus norvegicus [1] = assay: Toxicity in Long-Evans rat assessed as white adipose tissue weight/body weight ratio at 20 to 90 mg/kg, sc measured after 21 days; type: organism-based; design: dose 20-90 mg/kg, route subcutaneous; conditions: in vivo, 504 h
# Rattus norvegicus [2] = assay: Antidepressant activity in Long-Evans rat assessed as mobile index at 90 mg/kg, sc administered 21 days measured for 6 mins by Porsalt forced-swim test (reference value: 286 +/- 8.7 secs); type: functional; conditions: route subcutaneous
# Rattus norvegicus [3] = assay: Antidepressant activity in Long-Evans rat assessed as effect on number of boli excreted at 20 to 90 mg/kg, sc administered 21 days measured for 6 mins by Porsalt forced-swim test relative to vehicle-treated control; type: functional, organism-based
# HL-60 = assay: Cytotoxicity against human HL60 cells; type: functional; conditions: read-out: ED50 (the source's name)
# Rattus norvegicus [4] = assay: Toxicity in Long-Evans rat assessed as food intake at 20 mg/kg, sc measured after 20 to 21 days (reference value: 33.8 +/- 1.8 g); type: organism-based; design: dose 20 mg/kg, route subcutaneous; conditions: in vivo
# Rattus norvegicus [5] = assay: Toxicity in Long-Evans rat assessed as hypothalamic aromatase level at 90 mg/kg, sc measured per mg of protein measured for 21 days (reference value: 60 +/- 6.1 pmol/hr); type: organism-based; design: dose 90 mg/kg, route subcutaneous; conditions: in vivo, 504 h
# Rattus norvegicus [6] = assay: Toxicity in Long-Evans rat assessed as food intake at 90 mg/kg, sc measured after 20 to 21 days (reference value: 33.8 +/- 1.8 g); type: organism-based; design: dose 90 mg/kg, route subcutaneous; conditions: in vivo
# Rattus norvegicus [7] = assay: Toxicity in Long-Evans rat assessed as change in estrous cycle pattern at 20 to 90 mg/kg, sc measured for 8 days by vaginal histological analysis; type: organism-based; design: dose 20-90 mg/kg, route subcutaneous; conditions: in vivo, 192 h
# Rattus norvegicus [8] = assay: Toxicity in Long-Evans rat assessed as food intake at 20 mg/kg, sc measured after 8 to 9 days (reference value: 33.1 +/- 1.5 g); type: organism-based; design: dose 20 mg/kg, route subcutaneous; conditions: in vivo
# Rattus norvegicus [9] = assay: Antidepressant activity in Long-Evans rat assessed as effect on inverts at 20 to 90 mg/kg, sc administered 21 days measured for 6 mins by Porsalt forced-swim test relative to vehicle-treated control; type: functional, organism-based
# Rattus norvegicus [10] = assay: Toxicity in Long-Evans rat assessed as hypothalamic aromatase level at 20 mg/kg, sc measured per mg of protein measured for 21 days (reference value: 60 +/- 6.1 pmol/hr); type: organism-based; design: dose 20 mg/kg, route subcutaneous; conditions: in vivo, 504 h
# Rattus norvegicus [11] = assay: Toxicity in Long-Evans rat assessed as white adipose tissue weight at 20 to 90 mg/kg, sc measured after 21 days; type: organism-based; design: dose 20-90 mg/kg, route subcutaneous; conditions: in vivo, 504 h
# Rattus norvegicus [12] = assay: Antidepressant activity in Long-Evans rat assessed as effect on swim speed at 20 to 90 mg/kg, sc administered 21 days measured for 6 mins by Porsalt forced-swim test relative to vehicle-treated control; type: functional, organism-based
# Rattus norvegicus [13] = assay: Toxicity in Long-Evans rat assessed as water intake at 90 mg/kg, sc measured after 8 to 9 days (reference value: 53.3 +/- 2.7 mL); type: organism-based; design: dose 90 mg/kg, route subcutaneous; conditions: in vivo
# Rattus norvegicus [14] = assay: Antidepressant activity in Long-Evans rat assessed as mobile index at 20 mg/kg, sc administered 21 days measured for 6 mins by Porsalt forced-swim test (reference value: 286 +/- 8.7 secs); type: functional; conditions: route subcutaneous
# Rattus norvegicus [15] = assay: Antidepressant activity in Long-Evans rat assessed as effect on dives at 20 to 90 mg/kg, sc administered 21 days measured for 6 mins by Porsalt forced-swim test relative to vehicle-treated control; type: functional, organism-based
# Rattus norvegicus [16] = assay: Toxicity in Long-Evans rat assessed as water intake at 90 mg/kg, sc measured after 20 to 21 days (reference value: 50.7 +/- 3.5 mL); type: organism-based; design: dose 90 mg/kg, route subcutaneous; conditions: in vivo
# Rattus norvegicus [17] = assay: Toxicity in Long-Evans rat assessed as water intake at 20 mg/kg, sc measured after 8 to 9 days (reference value: 53.3 +/- 2.7 mL); type: organism-based; design: dose 20 mg/kg, route subcutaneous; conditions: in vivo
# Rattus norvegicus [18] = assay: Toxicity in Long-Evans rat assessed as water intake at 20 mg/kg, sc measured after 20 to 21 days (reference value: 50.7 +/- 3.5 mL); type: organism-based; design: dose 20 mg/kg, route subcutaneous; conditions: in vivo
# Rattus norvegicus [19] = assay: Toxicity in Long-Evans rat assessed as food intake at 90 mg/kg, sc measured after 8 to 9 days (reference value: 33.1 +/- 1.5 g); type: organism-based; design: dose 90 mg/kg, route subcutaneous; conditions: in vivo
# [20] = Half life in human; type: ADME, organism-based; conditions: in vivo
structure (smiles),measurement,setting,value
CC(=O)Oc1ccc(/C=C/c2cc(O)cc(O)c2)cc1,Ratio,Rattus norvegicus [1],2.4
same,Time,Rattus norvegicus [2],319 s
same,Activity,Rattus norvegicus [3],Active
same,EC50,HL-60,17 µM
same,Activity,Rattus norvegicus [4],35.2 g
same,Activity,Rattus norvegicus [5],73 pmol/h
same,Activity,Rattus norvegicus [6],36.9 g
same,Activity,Rattus norvegicus [7],Non-toxic
same,Activity,Rattus norvegicus [8],34.3 g
same,Activity,Rattus norvegicus [9],Active
same,Activity,Rattus norvegicus [10],71 pmol/h
same,Activity,Rattus norvegicus [11],6.6 g
same,Activity,Rattus norvegicus [12],Active
same,Activity,Rattus norvegicus [13],56.7 mL
same,Time,Rattus norvegicus [14],312 s
same,Activity,Rattus norvegicus [15],Active
same,Activity,Rattus norvegicus [16],55.8 mL
same,Activity,Rattus norvegicus [17],52.1 mL
same,Activity,Rattus norvegicus [18],50.9 mL
same,Activity,Rattus norvegicus [19],35.2 g
Oc1ccc(/C=C/c2cc(O)cc(O)c2)cc1 [RESVERATROL],EC50,HL-60,22 µM
same,half-life,[20],30 min
